Patent US20200054646A1, “USE OF PHENOTHIAZINE DERIVATIVE IN THE TREATMENT OF INFECTIOUS PURPURA OR PURPURA FULMINANS” (priority 2016, published 2020)

Tests used:
[1] = system: HDMECs colonized by N. meningitidis; assay: Basement membrane remodelling: Gelatin-FITC matrix degradation by infected HDMEC; assay type: cell-based, human; conditions: infected cells, 150 μg/ml Gentamicin alone, 24 h post-infection
Procedure: (A) Experimental procedure: HDMECs grown on a fluorescent matrix (Gelatin-Fitc) were colonized by N. meningitidis for 6 h. They were then treated with 150 μg/ml gentamicin for 1 h, then 15 min with Trifluoperazine (50 μM) (or solvent alone as control) and incubated for further 15 h in the presence of 150 μg/ml gentamicin. (B) Fluorescence microscopy was used to visualize cells stained with labelled phalloidin and the fluorescent matrix. The presence of dark zones corresponds to zones of matrix degradation. (C) Quantification of the percentage of matrix degradation, using Image J software.
Plastic coverslips (13 mm diameter) (Nalgen #174950) were washed in ethanol 70%, dried then coated with poly-L-lysine 1 mg/ml for 20 min at room temperature. After one wash in sterile PBS, 0.5% Glutaraldehyde was added for 15 min at room temperature. After three washes in PBS, Gelatin-FITC (0.2 mg/ml Invitrogen #G13187) was added for 10 minutes at room temperature in the dark. Coverslip were then washed with sterile PBS and treated with 5 mg/ml sodium borohydride for 3 min. After three washes in sterile PBS, 10^5 HDMECs (PromoCell #C-12210) were seeded per well in their PromoCell culture medium and incubated overnight at 37° C. 5% CO2. The day after, cells were infected with Neisseria meningitidis Nm2C4.3, as above described. […] Quantifications were performed using ImageJ software (NIH).

[2] = system: meningococcal colonization of the human dermal vasculature; assay: In vivo infection of mice engrafted with human skin
[3] = system: Enteropathogenic Escherichia Coli (EPEC escN mutant, GFP) microcolonies on HBMEC; assay: Dispersion of EPEC microcolonies at the surface of human endothelial cells; assay type: cell-based; conditions: 10 to 50 μM, 30 min, dose-dependent
Procedure: Human bone marrow microvascular endothelial cells (HBMEC) were infected with a GFP-expressing mutant Enteropathogenic Escherichia Coli, which lacks the ATPase escN (EPEC […]escN-GFP) for 2 h, then treated with Trifluoperazine (10-50 μM) for 30 minutes, before fixation and immunofluorescence analysis using Alexa Fluor 633 Phalloidin. (A) Representative fluorescence microscopy showing bacterial colony (white dots) formed at the surface of the endothelial cells. (B) Quantification of the bacterial colonization was performed using Image J software.
HBMEC were grown on Thermanox coverslips coated with gelatin 2% for 2 days to reach confluency. Cells were then infected for 1 h with a GFP-expressing mutant Enteropathogenic Escherichia Coli (EPEC), which lacks the ATPase escN. This strain is unable to translocate effector proteins and is more prone to form pilus-dependent microcolony at the host cell surface (Jensen et al., 2015). Cells were then washed three times with medium to remove non-adherent bacteria and infection was pursued for 1 extra hour, to allow bacterial growth at the endothelial cell surface to form microcolonies. Trifluoperazine was then added to obtain final concentrations of 10, 20, 30 and 50 μM. After incubation for 30 minutes, cells were washed and fixed in 4% Paraformaldehyde for 10 min, washed three times with PBS. […] Quantification was done with ImageJ software (NIH). […]

Compound	degradation of the basement membrane [1]	colonization of the human dermal vasculature ([2]; mice engrafted with human skin)	incidence of vascular alteration ([2]; mice engrafted with human skin)	signs of intravascular coagulation ([2]; mice engrafted with human skin)	hallmark of vascular inflammation ([2]; trifluoperazine alone or in combination with cefotaxime)	dispersion of EPEC microcolonies [3]
CN[C@@H]1[C@@H](O)C(O[C@@H]2[C@@H](O)[C@H](O[C@H]3O[C@H]([C@@H](C)NC)CC[C@H]3N)[C@@H](N)C[C@H]2N)OC[C@]1(C)O (stereo partly drawn) [Gentamicin, (3R,4R,5R)-2-{[(1S,2S,3R,4S,6R)-4,6-diamino-3-{[(2R,3R,6S)-3-amino-6-[(1R)-1-(methylamino)ethyl]oxan-2-yl]oxy}-2-hydroxycyclohexyl]oxy}-5-methyl-4-(methylamino)oxane-3,5-diol]	about 20%					
CN1CCN(CCCN2c3ccccc3Sc3ccc(C(F)(F)F)cc32)CC1 [Trifluoperazine]		prevents the massive colonization	reduces incidence of vascular alteration	reduces the signs of intravascular coagulation	drastically reduced	induced the dispersion
